For twelve compounds, TGI and GI50 results are on record in PubChem BioAssay (NCI).

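Compound exposure: 48 hours, 5 concentrations, 96-well plates. Abbreviation: GI50, concentration required for 50% inhibition of growth. TGI denotes the concentration required for complete inhibition of growth.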

Assay in all cases: DTP human tumour cell line panel, 48 h
Experiment [1] deals with NCI-H460 lung.
The subject of experiment [2] is HT29 colon.
Experiment [3] concerns SF-295 CNS.
The subject of experiment [4] is SNB-19 CNS.
Experiment [5] relates to SR leukemia.
Experiment [6] relates to MALME-3M melanoma.
Experiment [7] concerns K-562 leukemia.
The test system of experiment [8] is HOP-62 NSCLC.
Experiment [9] relates to UACC-62 melanoma.
Experiment [10] relates to MDA-MB-435.

What is called TGI is the concentration giving total growth inhibition. A low value points to more potent growth arrest. Regarding `COc1ccc(/C=C2\C(=O)N(C3OC(COC(C)=O)C(OC(C)=O)C(OC(C)=O)C3OC(C)=O)c3ccccc3N=C2N)cc1` (stereo not given), the TGI in [1] was 75.8 µM; in [2], 38 µM; in experiment [3], 72.1 µM; in experiment [4], over 100 µM; in experiment [5], 53.6 µM; in experiment [6] it was 84.5 µM. Moreover, the TGI in experiment [7] is 38.1 µM; in [8] it was over 100 µM; in experiment [9], 45.8 µM; in [10], 35.7 µM.

Take `CC[C@H]1C=CCC[C@@]2(C[C@@H]3CC[C@@H]4[C@H](C(=O)OCCCCCCCCCCCCCCCC(=O)O)[C@]5(CCC[C@@H](C)O5)NC(=[N+]34)N2)O1`: the TGI turned out to be 1.12 µM in experiment [1]; 5.61 µM in experiment [2]; 2.09 µM in experiment [3]; 9.46 µM in experiment [4]; 0.357 µM in experiment [5]; 0.423 µM in experiment [6]. Moreover, the TGI in [7] is 5.73 µM; in experiment [8] it was 3.6 µM; in experiment [9], 0.179 µM; in experiment [10], 6.27 µM.

A word on the GI50: it is the concentration that inhibits growth by half. For `O=C(CCCCCCC(=O)Nc1ccc(N(CCCl)CCCl)cc1)NO`, the GI50 in experiment [1] is 0.598 µM; in experiment [2], 1.56 µM; in [3], 1.91 µM; in experiment [4], 4.12 µM; in [5], 0.23 µM; in experiment [6] it was 0.507 µM. Besides, the GI50 in [7] was 1.75 µM; in experiment [8], 2.98 µM; in experiment [9], 1.09 µM; in [10] it was 1.87 µM. For the same compound, the TGI in [1] was 12.9 µM; in [2], 12.7 µM; in experiment [3], 10.2 µM; in experiment [4], 29 µM; in experiment [5] it was 3.09 µM; in [6], 5.6 µM. The concentration for total growth inhibition (TGI) is 12.3 µM in experiment [7], 13.5 µM in [8], 5.09 µM in experiment [9] and 12 µM in experiment [10].

On to `CC(=O)Nc1cc([As](=O)(O)O)ccc1O`, for which the TGI in experiment [1], in experiment [2], in [3], in experiment [4], in experiment [5] and in experiment [6] was over 100 µM in each case. Besides, the TGI in [7], in [8], in [9] and in [10] was over 100 µM in each case.

For `Cn1c(=O)c2c(nc(-n3nc(-c4ccc(Cl)cc4)cc3N)n2C)n(C)c1=O`, the TGI in experiment [1] was over 100 µM; in experiment [2], over 100 µM; in experiment [3], over 100 µM; in experiment [4], over 100 µM; in [5], over 100 µM; in experiment [6] it was 83.2 µM. Besides, the TGI in experiment [7] was over 100 µM; in experiment [8], 81.9 µM; in experiment [9], over 100 µM; in experiment [10] it was over 100 µM.

Take `COc1ccc2nc(N/N=C/C(C)=N/Nc3cc(C)c4cc(OC)ccc4n3)cc(C)c2c1`: the TGI came out at 32.5 µM in experiment [1]; 28.7 µM in experiment [2]; 42.8 µM in [3]; 55.8 µM in experiment [4]; 12.8 µM in experiment [5]; 76.4 µM in experiment [6]. Also, the TGI in [7] came out at 9.81 µM; in experiment [8] it was 50.5 µM; in experiment [9], 64.6 µM; in [10] it was 62.1 µM.

On to `CC1CNc2ccccc2N=C1NN` (stereo not given), for which the TGI in experiment [1], in [2], in experiment [3], in experiment [4], in [5] and in [6] was over 100 µM throughout. In addition, the TGI in experiment [7], in [8], in [9] and in experiment [10] was over 100 µM each time.

As for `NC(=O)c1cc2cc(Cl)cc(Cl)c2oc1=Nc1ccc(F)cc1`, the TGI is 35.5 µM in experiment [1]; over 100 µM in experiment [2]; 39.3 µM in [3]; 42.3 µM in experiment [4]; 24.8 µM in experiment [5]; 43 µM in [6]. Moreover, the TGI was 27.5 µM in experiment [7], over 100 µM in experiment [8], 63.7 µM in [9] and 44.2 µM in experiment [10].

`COC(=O)C1=CC2CCCC1(O)C(C(C)=O)C2` (stereo not given): the TGI in experiment [1] was over 100 µM; in experiment [2], over 100 µM; in [3], over 100 µM; in [4] it was over 100 µM; in experiment [5], over 81.5 µM; in experiment [6], over 100 µM. In addition, the TGI in experiment [7], in [8], in experiment [9] and in [10] was over 100 µM throughout.

Consider `CNC(=O)OC(C)CN1c2ccccc2Sc2ccc(Cl)cc21` (stereo not given), for which the TGI in [1], in experiment [2], in [3], in experiment [4], in experiment [5] and in experiment [6] was over 10 µM each time. Moreover, the TGI in experiment [7], in experiment [8], in [9] and in [10] was over 10 µM each time.

For `CC1SC(c2ccccc2)N(CCc2cccs2)C1=O` (stereo not given), the GI50 in [1] is 3.55 µM; in [2], 4.03 µM; in experiment [3], 3.35 µM; in experiment [4] it was 5.06 µM; in experiment [5], 3.06 µM; in [6], 5.47 µM. Besides, the GI50 in experiment [7] is 3.94 µM; in [8], 11 µM; in experiment [9], 3.42 µM; in experiment [10], 3.63 µM. The TGI in [1] was determined as 14.7 µM; in [2] it was 15.2 µM; in [3], 15.7 µM; in [4], 19.9 µM; in experiment [5] it was 16.4 µM; in experiment [6], 26.1 µM. In addition, the TGI was over 100 µM in experiment [7], 25.9 µM in [8], 18.8 µM in experiment [9] and 16.7 µM in experiment [10].

Turning to `O=C(N/N=C(/c1ccccc1)C(F)(F)F)c1ccncc1`, the TGI in experiment [1], in experiment [2], in experiment [3], in experiment [4], in experiment [5] and in experiment [6] was over 100 µM throughout. In addition, the TGI in experiment [7], in experiment [8], in experiment [9] and in experiment [10] was over 100 µM in each case.
